Measurements taken from patent US11969499B2, “Hydrogel delivery of sting immunotherapy for treatment cancer” (WILLIAM MARSH RICE UNIVERSITY, priority 2017, dated 2024).
Entries after “also recorded” stand apart in the source; their conditions may differ. Read-outs that look alike come from different tables or passages of the source.

Tests used:
MOC2 tumors = conditions: multiple CDN injections; cited from earlier work
MOC-2-E6E7 tumors = assay: MOC-2-E6E7 orthotopic murine model of HNSCC, survival (Example 2, FIG. 2E); parameters: species or system C57BL/6 mice; conditions: mouse, in vivo
Experimental: MOC-2-E6E7 Orthotopic murine model of HNSCC. 6 week-old male and female C57BL/6 mice will be inoculated in the left maxillary vestibule with MOC-2-E6E7 cells (30,000 cells in 30 μl volume). Animals will be monitored using a body condition scoring system to ensure they maintain a healthy weight and show no obvious signs of distress. At Day 14 post-tumor inoculation, STINGel (20 jug CDN in 30 μl of MDP hydrogel) or controls (as above) are injected into the oral tumor site. Animal studies will be done in triplicate, independent experiments for significance. Between-group differences in flow cytometric data will be statistically evaluated with one-way ANOVA and post-hoc analysis using Tukey's method. Differences between groups will be considered significant if p<0.05. In efficacy studies, Kaplan-Meier survival curves will be compared using the log-rank/Mantel-Cox test and tumor growth curves will be analyzed using the Koziol method (Koziol et al., 1981; 1982).

[1] = test system: non-T cell-inflamed head and neck tumors; conditions: in vivo; cited from earlier work
MOC1 tumors = conditions: multiple intratumoral injections of CDN alone, cited from earlier work
MOC2-E6E7 cells = assay: In vitro live/dead cell viability in unloaded and CDN-loaded MDP hydrogel; type: cell-based; conditions: for percent cell viability per mm3 of hydrogel vs no CDN / percent cell viability per mm3 of hydrogel: Day 7
Experimental: Preparation of cell—laden hydrogel for in vitro viability. MDP gel formulations with MOC2-E6E7 cells were prepared by diluting a cell suspension of 2,000,000 cells/mL in 2×HBSS with an equal volume of 4×CDN. The resulting suspension was then added to an equal volume of sterile 2 wt. % peptide in 298 mM sucrose and mixed to produce final samples of approximately 35,000 cells per 70 μL of 1 wt. %, 149 mM sucrose gel. Gels were then transferred into 0.4 cm 2 wells of Lab-Tek 16 well glass chamber slides (Thermo Fischer, Rochester, NY), pipetted to produce 70 μL pucks with flat profiles. Samples were allowed to shear recover for 5-10 mM before adding 200 μL cell media on top of each gel. The cell media was changed every 2 days, taking care to not dislodge the hydrogel material.
Cell viability was determined at each desired time point by performing live/dead assays as described below. Live/dead staining solution was prepared in DPBS with 2 μM Calcein AM for live cells (Life Technologies), 4 μM Ethidium homodimer for dead cells (Life Technologies), and 5 μg/mL Hoechst 33342 for nuclei (MP Biomedicals, Solon, OH). […] Cell media was removed and the gels were washed with PBS. Samples were then stained with 100 μL of prepared solution by incubating at RT for 15-30 mM. Following staining, gels were placed in PBS for immediate analysis by confocal microscopy. Gels were analyzed by z-stack imaging (100 μm) using a Nikon A1 Confocal Microscope with 20× air and 40× water objectives (405 nm blue channel laser, 488 nm green channel laser, 561 nm red channel laser). Image processing was done using NIS Elements, and live/dead cell counting was performed using the cell identification tool in Imaris 3D/4D Image Processing software, manually verified with nuclear counts when resolution allowed.

MOC2-E6E7 tumors = assay: Tumor growth and survival study (Examples 3-4); type: in vivo, C57BL/6 mice
Experimental: Tumor growth and survival study. For tumor experiments, 6-8 week old wild-type C57BL/6 female mice were maintained in a pathogen-free environment for the study. All protocols were in accordance with the guidelines for humane treatment of laboratory animals by the National Institutes of Health, the Animal Welfare Committee and the Center for Laboratory Animal Medicine and Care (CLAMC) at the University of Texas Health Science Center at Houston. Mice were injected with MOC2-E6E7 tumor cells on day 0 into the maxillary oral vestibule (30,000 cells in 30 μL volume), followed by controls or gel injections loaded with or without CDN on day 3 in the same oral cavity location (20 lag CDN per 30 μL injection). Tumor growth was measured using calipers and body weight was taken in all subjects two to three times per week. Photographs were also obtained. Kaplan-Meier survival and tumor growth curve analyses were performed from data obtained. Mice that maintained tumor clearance for 100 days were re-challenged with MOC2-E6E7 tumor cells again at day 105 and monitored similarly. All endpoints in tumor growth curve and survival data are a result of euthanasia due to excessive tumor burden, defined as tumor reaching 12 mm, tumor ulceration, or a weight loss of greater than 20%. The inventors observed no signs of unexpected disease or discomfort in the mice over the course of the experiments.
Statistical methods. Statistical analyses for Kaplan-Meier survival curves were performed using the log-rank/Mantel-Cox test with GraphPad Prism (GraphPad, San Diego, CA). For tumor growth curves, the Wilcoxon rank sum test was used to compare tumor size between STINGel and other groups. No adjustment for multiple testing was made because the study is novel and exploratory. All p values are two-sided and p values less than 0.05 were considered as significant. All statistical analyses were performed using the SAS software (version 9.4, the SAS Institute, Cary, NC).

[2] = CDN drug release kinetics from hydrogels (UV absorbance at 259 nm); type: physicochemical; conditions: for CDN release compared to collagen (FIG. 5B): 30 μL gels, 910 μM CDN, under 200 μL HBSS, 24 h; for release profile of gels (FIG. 3A): CDN release, preliminary data
Experimental: CDN release kinetics. 30 μL CDN-loaded gel aliquots are deposited into 96 well plates with 200 μL of buffer added to the top of the gels at time point t=0. For all kinetics experiments, a Thermo Scientific Nanodrop 2000C Spectrophotometer is used to measure UV absorbance at 259 nm, the characteristic wavelength of maximum absorbance for the adenine nucleobases present in the CDN. See FIG. 1A for an example of preliminary release kinetics data.
CDN drug release kinetics. To study the kinetics of CDN release from STINGel vs. collagen gel, 30 μL CDN-loaded gel aliquots were deposited into Falcon® 96 well flat bottom polystyrene plates (Becton Dickinson Labware, Franklin Lakes, NJ). For each experiment, cylindrical pucks of the 30 μL gel aliquots were created in each well, allowing the pipetted gels to shear recover for at least 5 mM before adding 200 μL of buffer (1×HBSS for STINGel, lx DPBS for collagen, according to gelation requirements) to the top of the gels at what was defined as t=0 for the start of kinetics experiments. The buffer height was approximately 2.5 mm, the gel thickness approximately 0.5 mm, and the gel's solvent exposed surface area approximately 12.6 mm^2.
A Thermo Scientific Nanodrop 2000C Spectrophotometer was used to measure UV absorbance at 259 nm, the characteristic wavelength of maximum absorbance for the CDN's adenine nucleobases. An extinction coefficient of 24,000 M^−1 cm^−1 at 259 nm was used. Absorbance measurements were taken by removal of 1 μL aliquots from the surface of the buffers, measuring the increase in absorbance over time. Release of CDN was measured over the course of the first 24 hours and converted to total percent released, with additional measurements also made at 48 and 72 hours to confirm that the samples had reached equilibrium.

Which results are given for `Nc1ncnc2c1ncn2[C@@H]1O[C@@H]2COP(O)(=S)O[C@@H]3C(O)[C@@H](COP(O)(=S)O[C@H]2[C@H]1O)O[C@H]3n1cnc2c(N)ncnc21` (stereo partly drawn) [CDN, dithio-(RP,RP)-[cyclic[A(2′,5′)pA(3′,5′)p]]]?
tumor rejection (MOC2 tumors): unsuccessful MOC2 tumor rejection; mortality before day 60 (MOC-2-E6E7 tumors): 100%; efficacy [1]: completely ineffective; efficacy / tumor rejection (MOC1 tumors): only to a subset of MOC1 tumor rejection; efficacy / tumor rejection (MOC1 tumors; listed as CDN alone): minimal efficacy; percent cell viability per mm3 of hydrogel vs no CDN (MOC2-E6E7 cells; 5 μM CDN): equivalent; percent cell viability per mm3 of hydrogel vs no CDN (MOC2-E6E7 cells; 57 μM CDN): equivalent; percent cell viability per mm3 of hydrogel vs no CDN (MOC2-E6E7 cells; 114 μM CDN): equivalent; percent cell viability per mm3 of hydrogel (MOC2-E6E7 cells; 228 μM CDN): reduced cell viability; percent cell viability per mm3 of hydrogel (MOC2-E6E7 cells; 455 μM CDN): no cell viability; percent cell viability per mm3 of hydrogel (MOC2-E6E7 cells; 910 μM CDN): no cell viability; max tolerable dose cells can experience in their local environment (MOC2-E6E7 cells; without the massive cell death observed at 455 μM and above): 228 µM; mice surviving until the endpoint of the study (MOC2-E6E7 tumors; 140 days post-tumor cell inoculation, single injection day 3, 20 μg CDN in 30 μL, n=10): 10%; effect on tumor growth (MOC2-E6E7 tumors; single injection day 3 post inoculation): ineffective in preventing tumor growth

With “E2(SL)6E2 (SEQ ID NO: 3) (EESLSLSLSLSLSLEE) [additional multidomain peptide hydrogel with glutamate termini]” as the compound, how does the “CDN release compared to collagen (FIG. 5B)” value [2] read?
Its value is “better (slower) release compared to collagen”.

What about the “release profile of gels (FIG. 3A)” value [2] of the same compound?
The value was “intermediate release rates”.

For “R2(SL)6R2 (SEQ ID NO: 4) (RRSLSLSLSLSLSLRR) [additional multidomain peptide hydrogel with arginine termini]”, which “CDN release compared to collagen (FIG. 5B)” value [2] is on record?
The value was “better (slower) release compared to collagen; also recorded: the best of the group”.

What about the “release profile of gels (FIG. 3A)” value [2] of the same compound?
The value was “slowest, most prolonged release”.
